Reference: patent publication US9232788B2, “Fumigation methods” (Honeywell International Inc., priority 2011, dated 2016)
“Also recorded” adds a separate entry of the source.

What was measured:
[1] = system: Abutilon theophrasti Medik. seeds; assay: Fumigant test on weed seeds in soil, seed germination count; format: in vivo; conditions: for Seeds Germinated Abutilon theophrastic Medik.: fourteen seeds in soil, two days treatment, counted after 10 days; for seed germination (in words): all experimental concentrations (80, 160, 440 ml)
Method: (§1) In particular, in 440 mL pressure vessels, fourteen seeds of Abutilon theophrasti Medik. and fifteen seeds of Lolium multiflorum Lam. were thoroughly mixed with 50 mL (approximately 30 grams) of soil and 6 mL of water. The filled vessels were kept at room temperature for 20-24 hr to allow the seeds to imbibe water before treatment. The vessels were sealed and evacuated, and then 80 ml, 160 ml and 440 ml respectively of gaseous 1225zc was added. The vessels were thoroughly mixed and placed horizontally on the laboratory bench at ambient temperature for two days. The contents of each bottle were transferred to a plastic sterile Petri dish containing 7 mL of water. The Petri dishes were sealed with parafilm and incubated in the laboratory at ambient temperature. After 10 days, the number of germinated seeds was counted.
The same experiment was performed as described in Example 1 except that hexafluoropropene (HFP) was used as the active fumigant composition.

[2] = system: Lolium multiflorum Lam. seeds; assay: as above; format: in vivo; conditions: for Seeds Germinated Loliium multiflorum Lam.: fifteen seeds in soil, two days treatment, counted after 10 days; for seed germination (in words): all experimental concentrations (80, 160, 440 ml)
Method: as §1, with “counted. […]” for “counted.”

[3] = Volatility of aqueous fumigant compositions with and without surfactant (weight loss); format: physicochemical; conditions: with Tween 80 nonionic surfactant versus without; 20° C., vented, weight loss every 30 seconds
Method: Experimentation was carried out to determine the volatility of aqueous fumigant compositions, both with and without inclusion of a surfactant. In each case, the fluorocarbon was placed in a chilled 500 ml Fischer Porter tube that was equipped with a vent to remove any gases. The vessel was cooled to 0° C. and was charged with varying amounts of water, fluorocarbon and surfactant. The temperature was equilibrated to 20° C. and the reactor was placed on a balance. The vent tube was opened and the weight loss was recorded every 30 seconds.
In analyzing the effects of adding surfactant to an aqueous solution of HFP, 10.11 grams of HFP was added to 39.71 grams of water. In a separate experiment, 9.83 grams of HFP and 4.03 grams of Tween™ 80 were added to 40.08 grams of water. FIG. 1 provides a graphical representation of the numerical data comparing the volatility of an aqueous solution of HFP, both with and without inclusion of the Tween™ 80 nonionic surfactant.
In analyzing the effects of adding surfactant to an aqueous solution of 1225zc, 10.78 grams of 1225zc were added to 39.69 grams of water. In a separate experiment, 10.70 grams of 1225zc and 4.08 grams of Tween™ 80 were added to 40.15 grams of water. […]

[4] = 80 ml gaseous fumigant in 440 mL vessel
[5] = 160 ml gaseous fumigant in 440 mL vessel
[6] = 440 ml gaseous fumigant in 440 mL vessel

## FC(F)=CC(F)(F)F [1225zc, 1,1,3,3,3-pentafluoropropene]
[1]; [4]
  Seeds Germinated Abutilon theophrastic Medik.: 0
[1]; [5]
  Seeds Germinated Abutilon theophrastic Medik.: 0
[1]; [6]
  Seeds Germinated Abutilon theophrastic Medik.: 0
[1]
  seed germination (in words): none
[1]; listed as 1125c
  seed germination (in words): completely prevented seed germination
[2]; [4]
  Seeds Germinated Loliium multiflorum Lam.: 0
[2]; [5]
  Seeds Germinated Loliium multiflorum Lam.: 0
[2]; [6]
  Seeds Germinated Loliium multiflorum Lam.: 0
[2]
  seed germination (in words): none
[2]; listed as 1125c
  seed germination (in words): completely prevented seed germination
[3]
  retention of the fluorocarbon in aqueous solution: longer retention

## FC(F)=C(F)C(F)(F)F [HFP, hexafluoropropene]
[1]; [4]
  Seeds Germinated Abutilon theophrastic Medik.: 0
[1]; [5]
  Seeds Germinated Abutilon theophrastic Medik.: 0
[1]; [6]
  Seeds Germinated Abutilon theophrastic Medik.: 0
[1]
  seed germination (in words): completely prevented seed germination; also recorded: no germination occurred
[2]; [4]
  Seeds Germinated Loliium multiflorum Lam.: 0
[2]; [5]
  Seeds Germinated Loliium multiflorum Lam.: 0
[2]; [6]
  Seeds Germinated Loliium multiflorum Lam.: 0
[2]
  seed germination (in words): completely prevented seed germination; also recorded: no germination occurred
[3]
  retention of the fluorocarbon in aqueous solution: longer retention
